What was measured:
[1] = system: insulin-dependent activation of Akt in FL83B mouse liver cells; test: Western blot of insulin-dependent phospho-Akt activation in FL83B cells; assay type: cell-based; conditions: for Insulin-dependent P-Akt signaling: Western blot
Text: (§1) Western blot protocol of phospho-Akt (columns 2-4) and phospho-Erk (columns5-7). As explained above and in Example 4, Western blots of phospho-Akt and phospho-Erk are a more accurate and precise and quantitative measure of Akt phosphorylation than ICWB measurements. Insulin-dependent phospho-Akt is a direct measurement of insulin sensitivity, and we expect that Shc inhibitors will stimulate phospho-Akt more than phospho-Erk. All of the drugs listed in FIG. 5A stimulated insulin-dependent phospho-Akt at some concentration. Method. Mouse liver cells FL83B were plated at density of 400.000 cells per well of 6 well pate and cultivated for 48 hours, media was changed to DMEM, 25 mM glucose serum free and 16 hours later the cells were treated with drug at the indicated concentration for one hour. Control wells were treated with the vehicle (DMSO), in certain control wells the metabolic (Akt) insulin signaling was blocked with wortmannin. The cells were induced with indicated concentration of insulin for 10 minutes, total protein was extracted and the Western Blots were performed with indicated antibody as described above. […]
Sensogramms were obtained, and response [nm] for each concentration was plotted against log concentration of idebenone. […] Cells were stimulated with 0.2 nM insulin for 10 minutes, and Western analyzed for induction of Akt and ERK. […] Sigmoidal dose-response (variable slope) fitting analysis was performed, EC50, hill slope, and top response were identified, as described above, and are indicated on the graph. p-value was calculated by testing R^2 for significance for N=65. […] For ITT, the food was deprived at 7 am (the beginning of light phase), basal glucose was measured at 11 am, and insulin was administrated at 0.8 U/kg dose; blood glucose was recorded and expressed as % of baseline, and plotted against time. […]

[2] = biological target: T1, Shc-PTB domain (Homo sapiens, UniProt P29353); test: Octet RED 384 binding to p52Shc protein (p52Shc lacking PTB domain as reference); conditions: for EC50: 10 pM to 100 uM, Octet RED 384
T1 sequence (P29353 1-473 isoform P29353-2): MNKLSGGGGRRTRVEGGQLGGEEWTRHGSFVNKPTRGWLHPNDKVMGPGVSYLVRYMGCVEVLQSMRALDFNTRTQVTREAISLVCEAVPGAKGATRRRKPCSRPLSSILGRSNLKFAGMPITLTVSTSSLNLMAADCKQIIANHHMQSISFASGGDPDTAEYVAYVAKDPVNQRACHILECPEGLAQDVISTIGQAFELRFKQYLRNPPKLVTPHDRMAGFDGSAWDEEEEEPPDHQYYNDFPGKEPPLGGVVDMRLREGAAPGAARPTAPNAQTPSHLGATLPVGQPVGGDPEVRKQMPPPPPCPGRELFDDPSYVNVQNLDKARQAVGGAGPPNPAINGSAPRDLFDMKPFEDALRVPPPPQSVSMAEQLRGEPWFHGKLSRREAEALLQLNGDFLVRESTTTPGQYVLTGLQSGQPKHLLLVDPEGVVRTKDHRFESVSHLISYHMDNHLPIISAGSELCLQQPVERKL
Protocol: (§2) Sensogramms were obtained, and response [nm] for each concentration was plotted against log concentration of idebenone. Sigmoidal, variable slope fitting analysis was performed using GraphPad Prism Software (GraphPad Software, Inc., La Jolla, Calif.). […] Cells were stimulated with 0.2 nM insulin for 10 minutes, and Western analyzed for induction of Akt and ERK. Insulin dependent activation of Akt is presented as fold change over vehicle control, and plotted against log concentration of idebenone; tubulin signal was used for normalization between biological samples. Sigmoidal dose-response (variable slope) fitting analysis was performed, EC50, hill slope, and top response were identified, as described above, and are indicated on the graph. p-value was calculated by testing R^2 for significance for N=65. […] Idebenone at indicated dose was given to animals 30 minutes before dark phase for five days. At the day of Insulin Tolerance Test (ITT) additional dose of idebenone was given to animals two hours prior to insulin injection. For ITT, the food was deprived at 7 am (the beginning of light phase), basal glucose was measured at 11 am, and insulin was administrated at 0.8 U/kg dose; blood glucose was recorded and expressed as % of baseline, and plotted against time. […] Software (CambridgeSoft Corporation, Waltham, Mass.), and virtually docked to Shc-PTB using iGEMDOCK software (BioXGEM Lab, National Chiao-Tung University Hsinchu, Taiwan, R.O.C), and, MOL file was generated. Three dimensional structure of PTB domain of Shc was obtained from Protein Data Bank (http://www.rcsb.org/).
FIGS. 9A-E illustrate that SrcI-1 binds into PTB domain of Shc protein. […] Sensograms were obtained and shown. […] Sigmoidal, variable slope fitting analysis was performed; EC50, hill slope, and top response were identified, and indicated. p-value was calculated by testing R^2 for significance for N=24; SrcI-1 was binding to Shc-PTB domain with EC50 of 3 μM.
FIGS. 11A-F illustrate details of interaction of idebenone analogs, idebenone and SrcI-1 with Shc protein. […]

[3] = system: Erk activation in FL83B mouse liver cells; test: Western blot of phospho-Erk activation in FL83B cells; assay type: cell-based
Text: as §1

[4] = system: phospho-Shc; test: Western blot of phospho-Shc; assay type: cell-based
Protocol: Assays to identify compounds useful for preventing, reducing, delaying or inhibiting symptoms of impaired insulin sensitivity, glucose intolerance or obesity can be performed in vitro. Candidate agents can be contacted with a population of test cells in the presence of insulin (e.g., 1 nM, 5 nM, 10 nM, 100 nM or more). An agent that prevents, reduces, delays or inhibits one or more symptoms of impaired insulin sensitivity, glucose intolerance or obesity increases the ratio of levels of phospho-Akt-1 over phospho-Erk relative to a control ratio. The increase in ratio of levels of phospho-Akt-1 over phospho-Erk can be determined in comparison to a control population of cells that have not been contacted with insulin or have been contacted with a low concentration of insulin (e.g., less than 0.1 nM) or a population of cells contacted with insulin but not with the compound under test. Ratio of levels of phospho-Akt-1 over phospho-Erk can be determined using a Western blot among other methods. Inhibition of Shc activity can be quantitatively measured by assaying the reduction of stimulatory Shc phosphorylation, using a phospho-Shc specific antibody. Inhibition of Shc expression can be measured using a Western blot. […]

[5] = system: FL83B cells; test: High-throughput in-cell western blot (ICWB) screen for insulin sensitizers, P-Akt over P-ERK; assay type: cell-based, mouse; conditions: for Score rank in screening assay: 1689 molecules screened
Protocol: Drugs were screened by in-cell western blot (ICWB) for their ability to stimulate phospho-Akt activation in the presence of trace or 10 nM insulin (FIG. 4A). Cells in wells were treated with drugs, and the activity (phosphorylation) of Akt was determined by a phospho-Akt specific antibody. In FIG. 4A, low insulin was given and drugs a, b, c, stimulated Akt activation. In FIG. 4B, 10 nM insulin was given and a, b, and c stimulated signaling over background, and d and […] inhibited. […] Drugs were primarily screened for their ability to promote insulin-dependent stimulation of (phospho)Akt, then secondarily screened for lack of activity to stimulate (phospho) Erk, or a high Akt/Erk ratio. Such drugs are expected to cause insulin sensitivity, resistance to obesity, and longevity. Some drugs having these desired characteristics are Shc inhibitors.
Primary ICWB was performed as follows: FL83B cells were seeded on 384 well plates, 10,000 cells per well in F-12 media supplemented with 10% FBS and 25 mM glucose; 48 hours later the media was replaced with F-12, 25 mM glucose without FBS for sixteen hours; cells were supplemented with assigned drug at desired concentration for 1 hour in duplicate and then, the cells were stimulated with desired concentration of insulin for ten minutes for Akt activation and fifteen minutes for ERK activation measurements. After that time the media was removed and replaced with fixing solution of 5% Formaldehyde in PBS, pH=7.4, 30 minutes later, the fixing solution was replaced with the permeabilization buffer, 0.1% triton X100 in PBS for 40 minutes. […] After the incubation with the secondary antibodies for one hour at room temperature, the wells were washed again two times with the 0.1% tween-20 in PBS and scanned on the Li-Cor Odyssey infrared scanner; images were analyzed with the Li-Cor Odyssey software. […] Phospho-Akt, Phospho-ERK signals than were normalized by tubulin signals in each well and the densitometric results were analyzed to identify drugs which improved metabolic insulin sensitivity without inducing the mitogenic ERK activation. […]

[6] = system: mice; test: Insulin tolerance test (ITT) and basal blood glucose in mice; assay type: in vivo, mouse; conditions: for Insulin sensitivity in vivo (ITT): PO 20 and 50 mg/kg in peanut butter, five days
Protocol: Insulin Tolerance Test (ITT) and Glucose Tolerance Test (GTT) Protocol for FIG. 2C: Groups of age/sex matched mice of Control and ShcKO genotypes were food deprived for four hours and challenged with I.P. injection of insulin, and glucose concentration was determined in blood exactly at indicated time-points. Decrease and recovery of blood glucose was calculated as a % of basal level (the time-point before insulin injection). Basal levels of glucose were measured in triplicate for each mouse. For the GTT, the same groups of mice were fasted during fourteen hours and challenged with glucose injection I.P., analogously the blood glucose concentrations were measured.
In-vivo drugs testing to improve the insulin sensitivity of periphery for FIG. 6D, E: Groups of mice, ten for the experimental drug treatment and 14 for the placebo treatment were subject for I.P. administration of a drug or placebo solutions daily during four days. Acarbose, a known drug which decreases blood glucose concentration was used as a control. The insulin tolerance test, ITT was performed on the mice as described previously, in Example 2.
as §2

[7] = system: corticosterone-treated mice; test: Corticosterone-treated mice: blood glucose and ITT; assay type: in vivo, mouse
Protocol: Mice were kept pathogen-free throughout the study. All experimental procedures were approved by the Institutional Animal Care and Use Committee (IACUC) and were performed in compliance with local, state, and federal regulations. Diet was LM-485 (Teklad 7012) with nutrient composition: protein=19.9%, carbohydrates=53.7%, fat=5.7%. The source of lipid was soybean oil, protein-soybean meal, energy source-ground oats. Group of 36 13-month old male and female mice were tested with ITT before the study began and were started on Corticosterone in drinking water at 100 mg/L. Body weight and blood glucose were monitored. FIG. 12A illustrates experimental flow. Mice were started on corticosterone at day 1 and continued on it through the study. At day 13 the group was randomly split 1:1 and half were given idebenone as a mixture with peanut butter daily, another half was given placebo daily for another 5 days. All mice continued receiving corticosterone in drinking water for these 5 days, and then ITT were performed. For insulin tolerance tests mice were fasted for six hours and given intra-peritoneal injection of insulin (0.2 U/kg); then blood glucose was measured in the indicated time course (FIG. 12D). FIG. 12B bars are body weights in grams. […] (FIG. 12D) ITT of Control, CS+placebo, and CS+idebenone groups. […] Error bars are standard deviations. *=p<0.05. […]

Compound: COc1cc2ncnc(Nc3ccc(Oc4ccccc4)cc3)c2cc1OC [SrcI-1]
- Insulin-dependent P-Akt signaling [1]: stimulates insulin-dependent P-Akt signaling
- EC50 ([2]; 24 point titration): 3000 nM
- Binding to Shc-PTB ([2]; Octet RED 384 sensograms): binding to Shc-PTB in dose-dependent fashion
- Erk activation [3]: decreased Erk activation
- P-Akt/P-Erk ratio [3]: increasing the P-Akt/P-Erk ratio
- phospho-Shc activation [4]: inhibited phospho-Shc activation in dose-dependent manner
- Score rank in screening assay [5]: scored in the top 35 out of 1689 molecules
- Basal blood glucose ([6]; 2.5 mg/kg I.P. for 4 days): significantly decreased basal blood glucose
- Insulin sensitivity in-vivo (ITT) ([6]; 2.5 mg/kg I.P. for 4 days): increased insulin sensitivity in-vivo

Compound: COC1=C(OC)C(=O)C(CCCCCCCCCCO)=C(C)C1=O [idebenone]
- Blood glucose level ([7]; 18th day, corticosterone 100 mg/L in drinking water, idebenone daily 5 days, versus placebo): significant decrease comparing to placebo group in blood glucose level
- Sensitivity to insulin in ITT ([7]; 40, 60, and 90 minutes after insulin 0.2 U/kg, versus corticosterone plus placebo): significantly more sensitive to insulin than corticosterone plus placebo
- EC50 ([1]; Mus musculus, drug 1 hour, 0.2 nM insulin for 10 minutes, 65 points, read-out: EC50 of sensitizing cells to insulin (insulin dependent activation of Akt)): 3.3 nM
- Insulin-dependent P-Akt signaling [1]: increased insulin-dependent phospho-Akt activation in a dose-dependent manner
- EC50 ([2]; 48 point titration): 1.2 nM
- phospho-Shc activation [4]: decreased phospho-Shc in a dose-dependent manner
- P-Akt/P-Erk ratio in primary screen ([5]; ICWB primary screen): increased P-Akt/P-Erk ratio
- Insulin sensitivity in vivo (ITT) [6]: increased insulin sensitivity in vivo
- Insulin sensitivity in vivo (ITT) ([6]; listed as Idebenone): significantly improving insulin sensitivity in-vivo

Compound: CN(C)C(=N)N=C(N)N [metformin]
- Score rank in screening assay [5]: scored in the top 35 out of 1689 molecules

— US20180064659A1, “AGENTS USEFUL FOR TREATING OBESITY, DIABETES AND RELATED DISORDERS” (The Regents of the University of California, priority 2015, published 2018)
